Results on three compounds are retold here after ChEMBL document CHEMBL5696442, “Discovery of type II inhibitors of TGFβ-activated kinase 1 (TAK1) and mitogen-activated protein kinase kinase kinase kinase 2 (MAP4K2)” (J Med Chem, 2015).

Activity calls are given as the source filed them. The calls are words filed in the database; no cut-off is given here.

In assay [1] the target is Serine-protein kinase ATM (Homo sapiens) (UniProt Q13315). The assay is described as follows: Inhibition of ATM ATP labeling site in human Huh-7 cell lysate at 1 uM by KiNativ Profiling analysis relative to control. Format: subcellular.
In assay [2] the target is Calcium/calmodulin-dependent protein kinase type II subunit gamma (Homo sapiens) (UniProt Q13555). The assay is described as follows: Inhibition of CaMK2g Lys1 labeling site harbouring TSTQEYAAKIINTK in human Huh-7 cell lysate at 1 uM by KiNativ Profiling analysis relative to control. Type of assay: subcellular.
Assay [3] concerns the target Ribosomal protein S6 kinase alpha-1 (Homo sapiens) (UniProt Q15418). The assay is described as follows: Inhibition of RSK1 domain2 ACT labeling site in human Huh-7 cell lysate at 1 uM by KiNativ Profiling analysis relative to control. Type of assay: subcellular.
Assay [4] addresses T1, Phosphatidylinositol 5-phosphate 4-kinase type-2 gamma (Homo sapiens) (UniProt Q8TBX8).
T1 sequence (whole entry): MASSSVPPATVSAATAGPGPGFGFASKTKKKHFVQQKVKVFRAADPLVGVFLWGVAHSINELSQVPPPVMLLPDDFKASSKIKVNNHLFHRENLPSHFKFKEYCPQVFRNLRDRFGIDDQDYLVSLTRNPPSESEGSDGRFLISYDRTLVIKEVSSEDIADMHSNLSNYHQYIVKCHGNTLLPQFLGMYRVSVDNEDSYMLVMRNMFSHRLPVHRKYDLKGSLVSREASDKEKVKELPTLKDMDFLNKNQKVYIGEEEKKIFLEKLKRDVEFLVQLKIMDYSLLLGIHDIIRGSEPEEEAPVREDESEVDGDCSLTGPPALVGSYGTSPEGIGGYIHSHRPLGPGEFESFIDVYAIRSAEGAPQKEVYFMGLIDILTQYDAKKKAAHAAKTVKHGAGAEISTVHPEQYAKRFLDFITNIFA
The assay is described as follows: Inhibition of PIP4K2C ATP labeling site harbouring VKELPTLK in human A-375 cells at 5 uM by KiNativ Profiling analysis relative to control. Type of assay: cell-based.

The target of assay [5] is T2, Serine/threonine-protein kinase LATS1 (Homo sapiens) (UniProt O95835).
T2 sequence (whole entry): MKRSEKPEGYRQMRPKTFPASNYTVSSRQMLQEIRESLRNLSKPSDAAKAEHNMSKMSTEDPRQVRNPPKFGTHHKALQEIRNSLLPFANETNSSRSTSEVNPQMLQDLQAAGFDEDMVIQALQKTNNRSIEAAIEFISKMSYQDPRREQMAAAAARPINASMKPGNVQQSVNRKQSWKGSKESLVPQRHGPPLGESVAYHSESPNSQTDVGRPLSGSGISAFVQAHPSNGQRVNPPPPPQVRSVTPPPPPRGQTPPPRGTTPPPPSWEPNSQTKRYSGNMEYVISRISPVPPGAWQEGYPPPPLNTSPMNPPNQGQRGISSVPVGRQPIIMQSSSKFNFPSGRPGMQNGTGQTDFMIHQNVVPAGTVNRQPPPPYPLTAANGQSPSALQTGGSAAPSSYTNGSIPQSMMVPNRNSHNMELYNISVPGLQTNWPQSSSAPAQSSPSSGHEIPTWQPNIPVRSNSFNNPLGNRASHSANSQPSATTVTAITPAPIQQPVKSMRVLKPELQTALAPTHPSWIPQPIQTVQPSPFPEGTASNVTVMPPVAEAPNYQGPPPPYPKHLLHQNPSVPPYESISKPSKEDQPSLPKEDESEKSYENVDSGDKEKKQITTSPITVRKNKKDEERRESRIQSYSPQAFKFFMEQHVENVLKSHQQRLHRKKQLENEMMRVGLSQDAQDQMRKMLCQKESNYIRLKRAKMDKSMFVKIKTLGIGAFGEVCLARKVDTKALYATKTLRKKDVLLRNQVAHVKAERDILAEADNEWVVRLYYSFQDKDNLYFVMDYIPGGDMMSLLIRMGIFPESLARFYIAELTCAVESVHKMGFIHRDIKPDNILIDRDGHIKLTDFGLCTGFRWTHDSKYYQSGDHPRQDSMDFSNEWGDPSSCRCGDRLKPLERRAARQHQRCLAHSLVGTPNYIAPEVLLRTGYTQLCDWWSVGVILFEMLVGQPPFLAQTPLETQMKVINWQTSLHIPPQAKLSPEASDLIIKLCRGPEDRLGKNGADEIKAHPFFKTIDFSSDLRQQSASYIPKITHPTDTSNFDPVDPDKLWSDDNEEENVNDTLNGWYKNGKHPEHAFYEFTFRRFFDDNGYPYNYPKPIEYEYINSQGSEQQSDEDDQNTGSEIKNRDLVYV
The assay is described as follows: Inhibition of LATS1 (unknown origin) at 1 uM by Ambit Kinomescan binding assay relative to control.

Assay [6] deals with Epidermal growth factor receptor (Homo sapiens), P00533 [G719C]. The assay is described as follows: Inhibition of EGFR G719C mutant (unknown origin) at 1 uM by Ambit Kinomescan binding assay relative to control.
Chain of Epidermal growth factor receptor (Homo sapiens), P00533 [G719C] (P00533 whole entry G719C): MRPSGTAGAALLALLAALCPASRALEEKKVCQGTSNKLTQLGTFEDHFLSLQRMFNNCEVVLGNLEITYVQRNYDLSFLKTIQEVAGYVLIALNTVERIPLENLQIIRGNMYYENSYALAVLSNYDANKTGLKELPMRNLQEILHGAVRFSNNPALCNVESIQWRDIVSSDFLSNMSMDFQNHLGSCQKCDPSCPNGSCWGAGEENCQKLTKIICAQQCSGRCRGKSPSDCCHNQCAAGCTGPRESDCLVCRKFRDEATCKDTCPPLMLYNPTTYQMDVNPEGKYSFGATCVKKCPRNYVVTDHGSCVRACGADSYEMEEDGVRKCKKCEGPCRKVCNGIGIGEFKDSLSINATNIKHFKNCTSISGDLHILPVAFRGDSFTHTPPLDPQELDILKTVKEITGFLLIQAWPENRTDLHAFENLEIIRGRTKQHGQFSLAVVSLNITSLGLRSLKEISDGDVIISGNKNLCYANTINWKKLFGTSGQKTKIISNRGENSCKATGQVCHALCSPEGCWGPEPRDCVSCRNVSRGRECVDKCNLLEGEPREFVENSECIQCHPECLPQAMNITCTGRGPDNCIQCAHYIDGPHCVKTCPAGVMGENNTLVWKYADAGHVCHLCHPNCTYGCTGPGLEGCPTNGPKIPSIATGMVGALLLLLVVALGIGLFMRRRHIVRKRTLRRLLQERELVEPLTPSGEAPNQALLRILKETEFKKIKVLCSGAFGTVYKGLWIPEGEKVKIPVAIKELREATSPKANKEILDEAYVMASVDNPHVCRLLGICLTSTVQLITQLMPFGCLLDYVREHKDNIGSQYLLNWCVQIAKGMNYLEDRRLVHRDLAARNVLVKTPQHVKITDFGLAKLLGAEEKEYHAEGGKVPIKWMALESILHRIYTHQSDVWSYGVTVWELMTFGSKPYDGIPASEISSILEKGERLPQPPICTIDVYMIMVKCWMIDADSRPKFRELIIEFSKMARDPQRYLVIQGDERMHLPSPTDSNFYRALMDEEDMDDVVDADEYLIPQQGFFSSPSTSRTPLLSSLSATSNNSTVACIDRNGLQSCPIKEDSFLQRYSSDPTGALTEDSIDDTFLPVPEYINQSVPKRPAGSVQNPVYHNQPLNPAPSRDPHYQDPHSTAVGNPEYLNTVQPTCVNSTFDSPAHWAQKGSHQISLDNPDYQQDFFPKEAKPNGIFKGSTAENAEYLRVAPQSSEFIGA
The target in assay [7] is DNA-PK/Ku70/Ku85 (Homo sapiens) (UniProt P78527+P12956+P13010). The assay is described as follows: Inhibition of DNAPK ATP labeling site harbouring GHDEREHPFLVKGGEDLRQDQR in human A-375 cells at 0.05 uM by KiNativ Profiling analysis relative to control. Type of assay: cell-based.
For assay [8], the target named is Mitogen-activated protein kinase kinase kinase 11 (Homo sapiens) (UniProt Q16584). The assay is described as follows: Inhibition of MLK3 (unknown origin) at 1 uM by Ambit Kinomescan binding assay relative to control.
Chain of Mitogen-activated protein kinase kinase kinase 11 (Homo sapiens) (Q16584 whole entry, looked up): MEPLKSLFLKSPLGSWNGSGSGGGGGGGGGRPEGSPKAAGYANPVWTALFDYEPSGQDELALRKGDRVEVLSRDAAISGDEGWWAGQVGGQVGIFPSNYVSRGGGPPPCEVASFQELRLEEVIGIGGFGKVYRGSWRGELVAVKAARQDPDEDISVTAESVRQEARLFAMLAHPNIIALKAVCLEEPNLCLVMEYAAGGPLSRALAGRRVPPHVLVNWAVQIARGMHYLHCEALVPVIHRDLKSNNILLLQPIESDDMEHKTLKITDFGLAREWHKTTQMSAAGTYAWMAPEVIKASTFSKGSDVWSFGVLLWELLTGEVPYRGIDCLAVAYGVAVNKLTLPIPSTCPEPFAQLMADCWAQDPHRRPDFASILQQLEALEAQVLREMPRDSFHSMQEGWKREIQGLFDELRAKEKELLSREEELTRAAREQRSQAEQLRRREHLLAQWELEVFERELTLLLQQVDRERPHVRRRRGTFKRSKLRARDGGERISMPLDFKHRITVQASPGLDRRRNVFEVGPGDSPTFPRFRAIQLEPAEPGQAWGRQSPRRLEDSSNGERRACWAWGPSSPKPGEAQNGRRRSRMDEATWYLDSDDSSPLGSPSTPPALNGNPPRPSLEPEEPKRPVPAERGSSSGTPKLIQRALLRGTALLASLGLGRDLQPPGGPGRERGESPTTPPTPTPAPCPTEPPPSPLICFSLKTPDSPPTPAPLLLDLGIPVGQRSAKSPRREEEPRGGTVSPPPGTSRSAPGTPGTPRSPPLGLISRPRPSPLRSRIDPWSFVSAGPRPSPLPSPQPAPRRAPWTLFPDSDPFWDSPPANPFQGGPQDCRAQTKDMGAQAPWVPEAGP
Assay [9] deals with Protein kinase C delta type (Homo sapiens) (UniProt Q05655). The assay is described as follows: Inhibition of PRKCD (unknown origin) at 1 uM by Ambit Kinomescan binding assay relative to control; values are per cent of control.
Chain of Protein kinase C delta type (Homo sapiens) (Q05655 whole entry, looked up): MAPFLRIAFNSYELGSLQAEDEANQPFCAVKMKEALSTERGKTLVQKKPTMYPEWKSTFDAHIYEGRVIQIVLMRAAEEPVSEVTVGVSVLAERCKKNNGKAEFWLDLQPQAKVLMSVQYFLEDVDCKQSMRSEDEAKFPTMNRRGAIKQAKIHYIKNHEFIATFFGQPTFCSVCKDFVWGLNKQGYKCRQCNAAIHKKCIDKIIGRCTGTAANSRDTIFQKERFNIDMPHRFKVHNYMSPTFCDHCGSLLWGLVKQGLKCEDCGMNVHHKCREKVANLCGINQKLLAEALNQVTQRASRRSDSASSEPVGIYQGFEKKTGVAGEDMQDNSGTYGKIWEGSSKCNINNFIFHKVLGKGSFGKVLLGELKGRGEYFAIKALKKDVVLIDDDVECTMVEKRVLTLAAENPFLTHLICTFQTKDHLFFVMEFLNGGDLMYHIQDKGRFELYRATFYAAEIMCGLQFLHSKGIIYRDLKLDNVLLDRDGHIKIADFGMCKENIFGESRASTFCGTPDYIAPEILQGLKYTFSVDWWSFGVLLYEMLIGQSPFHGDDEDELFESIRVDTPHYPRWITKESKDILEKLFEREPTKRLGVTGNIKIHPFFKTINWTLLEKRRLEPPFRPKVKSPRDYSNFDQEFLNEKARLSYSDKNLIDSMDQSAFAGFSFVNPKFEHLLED
Assay [10] deals with Tyrosine-protein kinase ABL1 (Homo sapiens, UniProt P00519). The assay is described as follows: Inhibition of phosphorylated ABL1 (unknown origin) at 1 uM by Ambit Kinomescan binding assay relative to control; values are per cent of control.
In assay [11] the target is MAP/microtubule affinity-regulating kinase 3 (Homo sapiens) (UniProt P27448). The assay is described as follows: Inhibition of MARK3 Lys2 labeling site in human A-375 cells at 0.5 uM by KiNativ Profiling analysis relative to control. Format: cell-based.
Chain of MAP/microtubule affinity-regulating kinase 3 (Homo sapiens) (P27448 whole entry, looked up): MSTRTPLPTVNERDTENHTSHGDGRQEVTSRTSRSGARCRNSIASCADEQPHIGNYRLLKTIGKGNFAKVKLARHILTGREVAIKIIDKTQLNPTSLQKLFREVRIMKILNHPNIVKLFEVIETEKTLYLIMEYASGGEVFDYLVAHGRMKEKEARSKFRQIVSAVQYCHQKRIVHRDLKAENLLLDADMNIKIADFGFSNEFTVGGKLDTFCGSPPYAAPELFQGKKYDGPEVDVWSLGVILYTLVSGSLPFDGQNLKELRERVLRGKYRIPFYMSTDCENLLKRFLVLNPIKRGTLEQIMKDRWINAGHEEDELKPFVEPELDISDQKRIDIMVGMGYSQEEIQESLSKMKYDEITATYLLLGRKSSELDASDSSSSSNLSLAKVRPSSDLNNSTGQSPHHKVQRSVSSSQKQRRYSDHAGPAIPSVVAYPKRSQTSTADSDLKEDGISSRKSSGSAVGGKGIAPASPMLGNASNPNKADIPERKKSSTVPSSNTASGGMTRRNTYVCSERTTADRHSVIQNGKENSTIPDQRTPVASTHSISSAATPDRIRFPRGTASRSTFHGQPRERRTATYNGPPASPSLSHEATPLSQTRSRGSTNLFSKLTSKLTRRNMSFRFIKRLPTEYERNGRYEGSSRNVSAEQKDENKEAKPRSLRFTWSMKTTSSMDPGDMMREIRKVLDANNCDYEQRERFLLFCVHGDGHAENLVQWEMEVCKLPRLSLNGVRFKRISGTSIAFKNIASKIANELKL
Assay [12] has as its target Mitogen-activated protein kinase kinase kinase kinase 4 (Homo sapiens, UniProt O95819). The assay is described as follows: Inhibition of ZC1/HGK K2 labeling site in human Huh-7 cells at 10 uM by KiNativ Profiling analysis relative to control. Type of assay: cell-based.
The target in assay [13] is Cyclin-dependent kinase 14 (Homo sapiens) (UniProt O94921). The assay is described as follows: Inhibition of PFTAIRE1 Lys2 labeling site in human A-375 cells at 5 uM by KiNativ Profiling analysis relative to control.
Chain of Cyclin-dependent kinase 14 (Homo sapiens) (O94921 whole entry, looked up, canonical isoform): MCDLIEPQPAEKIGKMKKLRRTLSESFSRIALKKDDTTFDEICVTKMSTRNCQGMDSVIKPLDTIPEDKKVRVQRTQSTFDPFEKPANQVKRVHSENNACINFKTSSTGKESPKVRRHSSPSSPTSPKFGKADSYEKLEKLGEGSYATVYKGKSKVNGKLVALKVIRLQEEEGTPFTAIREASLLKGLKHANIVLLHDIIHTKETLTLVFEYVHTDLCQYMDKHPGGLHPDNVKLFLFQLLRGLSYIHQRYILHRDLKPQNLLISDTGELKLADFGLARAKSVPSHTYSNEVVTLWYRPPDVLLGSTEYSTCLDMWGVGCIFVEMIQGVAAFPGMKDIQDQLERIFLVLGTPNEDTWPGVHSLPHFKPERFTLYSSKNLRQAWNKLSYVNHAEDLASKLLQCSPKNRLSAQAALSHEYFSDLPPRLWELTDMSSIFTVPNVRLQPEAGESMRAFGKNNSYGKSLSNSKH
Assay [14] deals with Phosphatidylinositol 4,5-bisphosphate 3-kinase catalytic subunit gamma isoform (Homo sapiens) (UniProt P48736). The assay is described as follows: Inhibition of PIK3CG (unknown origin) at 10 uM by Ambit Kinomescan binding assay.
Assay [15] deals with Ribosomal protein S6 kinase alpha-1 (Homo sapiens) (UniProt Q15418). The assay is described as follows: Inhibition of RSK1 domain1 Lys1 labeling site in human A-375 cells at 5 uM by KiNativ Profiling analysis relative to control. Format: cell-based.
Chain of Ribosomal protein S6 kinase alpha-1 (Homo sapiens) (Q15418 whole entry, the tested form may be a part): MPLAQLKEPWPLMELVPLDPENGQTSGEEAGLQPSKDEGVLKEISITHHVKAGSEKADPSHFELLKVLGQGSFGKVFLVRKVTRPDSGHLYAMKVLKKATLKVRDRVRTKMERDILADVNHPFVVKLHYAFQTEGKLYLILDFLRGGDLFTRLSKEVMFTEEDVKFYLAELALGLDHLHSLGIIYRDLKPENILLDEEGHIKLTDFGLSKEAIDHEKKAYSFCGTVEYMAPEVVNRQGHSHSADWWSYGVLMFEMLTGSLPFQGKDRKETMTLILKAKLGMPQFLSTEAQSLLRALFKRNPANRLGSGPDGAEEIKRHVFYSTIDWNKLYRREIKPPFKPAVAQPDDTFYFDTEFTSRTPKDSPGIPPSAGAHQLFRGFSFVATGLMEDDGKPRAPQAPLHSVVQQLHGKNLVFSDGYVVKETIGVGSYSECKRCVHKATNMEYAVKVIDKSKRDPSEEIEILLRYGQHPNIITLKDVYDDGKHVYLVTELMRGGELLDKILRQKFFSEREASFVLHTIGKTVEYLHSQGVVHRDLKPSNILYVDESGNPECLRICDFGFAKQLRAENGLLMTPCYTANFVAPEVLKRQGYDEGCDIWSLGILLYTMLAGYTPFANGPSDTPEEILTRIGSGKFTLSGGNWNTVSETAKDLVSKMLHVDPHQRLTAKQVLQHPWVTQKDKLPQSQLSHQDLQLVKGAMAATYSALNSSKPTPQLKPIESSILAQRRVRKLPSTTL
The target in assay [16] is Wee1-like protein kinase (Homo sapiens) (UniProt P30291). The assay is described as follows: Inhibition of Wee1 K2 labeling site in human Huh-7 cells at 1 uM by KiNativ Profiling analysis relative to control. Type of assay: cell-based.

Regarding `CNc1cc(Oc2cc(C(=O)Nc3cc(N4CCN(C)CC4)cc(C(F)(F)F)c3)ccc2C)ncn1`, the inhibition (usually the change of the read-out against control, counted positive when it falls) is 4.8% in assay [1], 6% in [2] and 1.9% in assay [3].

In the case of `CCN1CCN(Cc2ccc(NC(=O)c3ccc(C)c(/C=C/c4cnc5[nH]ccc5c4OC)c3)cc2C(F)(F)F)CC1`, the inhibition in assay [4] was -6%; in [5] it was 80%; in assay [6], 0.45%; in assay [7], -9.6%; in assay [8], 23%; in assay [11], 9.1%. Further, the residual activity – broadly, the signal under treatment as a percentage of the control signal – in assay [9] is 60%. The compound also gave a % of control in assay [10] of 0.7%.

Regarding `CCN1CCN(Cc2ccc(NC(=O)c3ccc(C)c(Oc4ccnc5[nH]ccc45)c3)cc2C(F)(F)F)CC1`, the inhibition was 72.6% in assay [12], 77.8% in assay [13], -8.6% in assay [15] and 1.5% in assay [16]. In addition, in [14], the inhibition entry is “inactive”.
